Reference: PMC5485657 (The Journal of Venomous Animals and Toxins Including …, 2017)
Ends that are not written are not given here.

How the values were obtained:
BK-induced rat paw edema = assay: Bradykinin-potentiating activity in vivo (rat paw edema); design: species or system Male Wistar rats; conditions: intraplantar BK 40 ng/mL (2 ng in 50 μL saline)
Experimental: Male Wistar (200 g-250 g) rats, bred at the Nuclear and Energy Research Institute (IPEN), São Paulo, SP, Brazil were used for the in vivo assays. The animals had access to food and water ad libitum, and were kept under a 12 h-light/dark cycle. Procedures involving animals and their care were in accordance with the guidelines for the use of animals on biomedical research and were approved by the Animal Ethics Committee (protocol 171/16) of IPEN.
Edema was induced by intraplantar injection of 2 ng of BK diluted in 50 μL saline into the left hind paw, which was measured every 5 min for 40 min by a plethysmograph (H. Basile, Italy). The right paw was injected with 50 μL […] saline (NaCl 0.9% w/v). In parallel, a group was injected with the synthetic potentiating peptide (40 ng/mL) in the left paw 10 min before the injection of BK, in order to evaluate the potentiation of BK. In both cases, the volume of the right paw was subtracted from that of volume of the left paw, to give net edema, expressed in μL.
One-way analysis of variance (ANOVA) was performed. The significance level was considered as p < 0.05.

paw edema = system: paw edema; design: method as in PMID 15688321; conditions: previous study, similar approach; cited from earlier work

Row | Substance | time at which induced edema was detectable (BK-induced rat paw edema; plethysmograph) | time course of edema (in words) (BK-induced rat paw edema; plethysmograph every 5 min for 40 min) | paw edema (in words) (paw edema)
1 | Bradykinin (RPPGFSPFR; also: acetate salt; UniProt P01042 381-389, looked up) [BK] | 5 min | declined at a constant rate over the next 40 min | 
2 | QWAQWPRPQIPP [BPP9a, B. jararaca BPP9a] |  |  | intense and fast paw edema
